# Assay results reported in patent publication US20230045616A1, “CANCER TREATMENT METHOD AND MEDICINE” (Nonprofit Organization North East Japan Study Group, priority 2019, published 2023).
# “Also recorded” adds a separate entry of the source.
# Tested on: lung cancer
# Experiment: CT / X-ray images of cancer tissue in treated lung cancer patients (case reports)
# Assay type: in vivo, human
substance,measurement,setting,value
nivolumab,cancer tissue in CT images after the treatment,"Example 3 patient, nivolumab after administration of Extract Z, FIG. 5",almost eliminated
same,primary foci and lymph node metastasis,"Example 23 patient, nivolumab alone 240 mg every 2 weeks from September, 2017, progression observed on Nov. 6, 2020",primary foci were almost eliminated and metastasis to the lymph nodes was eliminated
same,swelling in the cervical lymph node (CT images),"nivolumab 240 mg every 2 weeks continued after radiation of 30 Gy/10 fr to the cervical lymph node, stage IVb lung cancer patient","suppressed (April and October, 2019) and partially remitted; also recorded: suppressed (May, 2019) and partially remitted"
same,swelling in the cervical lymph node to which cancer had been metastasized (CT images),"nivolumab alone, 240 mg per dose i.v. drip at an interval of 2 weeks, stage IVb lung cancer patient without driver gene mutation",progressed
